Source: patent US20110039762A1, “TARGETED ANTIMICROBIAL MOIETIES” (C3 JIAN, INC., priority 2009, published 2011)
Entries after “also recorded” stand apart in the source; their conditions may differ.

Tests used:
[1] = test system: microorganisms; assay: Peptides having multiple activities (targeting/binding, antimicrobial, growth or phenotype altering)
From the text: In certain embodiments, peptides described herein can have multiple activities. Thus for example, a peptide can have both binding/targeting activity and antimicrobial activity. Such peptides can be used, e.g., in a chimeric construct, for any or all of these properties. Thus, for example, a peptide designated “B” in Table 8 can be used as a targeting peptide. If it is also designated G or M it can also be used for antimicrobial activity.

[2] = test system: C. jeikeium; assay: Kill or inhibit growth/proliferation; morphology, biofilm and growth disruption (Tables 5, 6); format: cell-based, Corynebacterium jeikeium; design: key: A: Peptide aggregates; B: Less hyphal formation; Clumps; Diffuse clumps and small polyps; F: Diffuse growth; H: Thin; I: Growth inhibition; Microcolony formation; Rippled; Small polyps; Thick; W: Halo formation on top, microlonies on bottom; further: test concentration or dose not given here
[3] = test system: S. pneumoniae; assay: as above; format: cell-based, Streptococcus pneumoniae; design: key: A: Peptide aggregates; B: Less hyphal formation; Clumps; Diffuse clumps and small polyps; F: Diffuse growth; H: Thin; I: Growth inhibition; Microcolony formation; Rippled; Small polyps; Thick; W: Halo formation on top, microlonies on bottom; further: test concentration or dose not given here
[4] = test system: E. faecalis; assay: as above; format: cell-based, Enterococcus faecalis; design: key: A: Peptide aggregates; B: Less hyphal formation; Clumps; Diffuse clumps and small polyps; F: Diffuse growth; H: Thin; I: Growth inhibition; Microcolony formation; Rippled; Small polyps; Thick; W: Halo formation on top, microlonies on bottom; further: test concentration or dose not given here
[5] = test system: microorganisms (e.g., bacteria, yeasts, fungi); assay: Targeting peptide binding to target microorganisms (Table 3); conditions: preferably 1x PBS; for Target(s) (microorganisms bound by the targeting peptide): peptide binding in aqueous buffers varied by peptide solubility
[6] = test system: S. epidermidis; assay: Kill or inhibit growth/proliferation; morphology, biofilm and growth disruption (Tables 5, 6); format: cell-based, Staphylococcus epidermidis; design: key: A: Peptide aggregates; B: Less hyphal formation; Clumps; Diffuse clumps and small polyps; F: Diffuse growth; H: Thin; I: Growth inhibition; Microcolony formation; Rippled; Small polyps; Thick; W: Halo formation on top, microlonies on bottom; further: test concentration or dose not given here
[7] = test system: MRSA; assay: as above; format: cell-based, Methicillin-resistant Staphylococcus aureus; design: key: A: Peptide aggregates; B: Less hyphal formation; Clumps; Diffuse clumps and small polyps; F: Diffuse growth; H: Thin; I: Growth inhibition; Microcolony formation; Rippled; Small polyps; Thick; W: Halo formation on top, microlonies on bottom; further: test concentration or dose not given here
[8] = microorganism(s) the targeting peptide binds, binding in aqueous buffers depending on peptide solubility
[9] = microorganism the targeting peptide binds, binding in aqueous buffers varied by peptide solubility

Substance | Activities [1] | Organism, effect [2] | Organism, effect [6] | Organism, effect [7] | Target(s) [5, 8] | further results
PF-623: peptide having multiple activities (VLFAVYLGALDWLFSWLTQKM; Peptide with targeting and/or antimicrobial activity) | G B | C. jeikeium (R) | S. epidermidis (M) | MRSA (D) |  | Organism, effect [3]: S. pneumoniae (D); Organism, effect [4]: E. faecalis (D); Target(s) (microorganisms bound by the targeting peptide) [5]: S. epidermidis and P. aeruginosa and MRSA and S. pneumoniae and E. faecalis and C. jeikeium
PF-657 (chain 1 YVANYTITQFGRDFDDRLAVAIHFA; chain 2 YVANYTITQFGRDFDDRLAVAIHFA; Peptide with targeting and/or antimicrobial activity) |  |  |  |  |  | Organism, effect (morphology, biofilm and growth disruption) [2]: C. jeikeium (D); Organism, effect (morphology, biofilm and growth disruption) [3]: S. pneumoniae (H); Organism, effect (morphology, biofilm and growth disruption) [4]: E. faecalis (D); Target(s) (microorganisms bound by the targeting peptide) [5]: Mycobacteria spp; Organism, effect (morphology, biofilm and growth disruption) [6]: S. epidermidis (C); Organism, effect (morphology, biofilm and growth disruption) [7]: MRSA (D)
PF-173: peptide having multiple activities (AGRTAIVQGGG; Peptide with targeting and/or antimicrobial activity) | G B | C. jeikeium (D) | S. epidermidis (A) |  | S. epidermidis; also recorded: M. luteus; also recorded: P. mirabilis; also recorded: E. coli; also recorded: P. aeruginosa; also recorded: C. albicans; also recorded: C. jeikeium; also recorded: C. jejuni | 
PF-048: peptide having multiple activities (chain 1 LYFAFKKYQERVNQAPNIEY; chain 2 LYFAFKKYQERVNQAPNIEY; Peptide with targeting and/or antimicrobial activity) | G B | C. jeikeium (S) | S. epidermidis (D) | MRSA (W) |  | Target(s) [5, 9]: S. epidermidis and M. luteus and E. coli and MRSA and C. jeikeium and C. jejuni
PF-208: peptide having multiple activities (DAYHCHLVRSPDAHDLSMRIGFV; Peptide with targeting and/or antimicrobial activity) | G B | C. jeikeium (A) | S. epidermidis (D) |  | S. epidermidis and C. albicans and MRSA and S. pneumoniae and E. faecalis and C. jeikeium and C. jejuni | 
PF-629: peptide having multiple activities (chain 1 GLAAIATVFALY; chain 2 GLAAIATVFALY; Peptide with targeting and/or antimicrobial activity) | G B | C. jeikeium (R) | S. epidermidis (C) | MRSA (D) |  | Organism, effect [3]: S. pneumoniae (M); Organism, effect [4]: E. faecalis (R); Target(s) (microorganisms bound by the targeting peptide) [5]: S. epidermidis and P. aeruginosa and C. albicans and MRSA and S. pneumoniae and E. faecalis and C. jeikeium
PF-203: peptide having multiple activities (SWKCHHLAI; Peptide with targeting and/or antimicrobial activity) | G B | C. jeikeium (R) | S. epidermidis (A) |  |  | 
PF-637: peptide having multiple activities (chain 1 SRIKQDARSVRKYDRIGIFFYSFKSA; chain 2 SRIKQDARSVRKYDRIGIFFYSFKSA; Peptide with targeting and/or antimicrobial activity) | G B | C. jeikeium (D) | S. epidermidis (M) | MRSA (M) |  | Organism, effect [3]: S. pneumoniae (M); Organism, effect [4]: E. faecalis (D); Target(s) (microorganisms bound by the targeting peptide) [5]: S. epidermidis and P. aeruginosa and C. albicans and MRSA and S. pneumoniae and E. faecalis and C. jeikeium
PF-099: peptide having multiple activities (EIIAYLEGRFANA; Peptide with targeting and/or antimicrobial activity) | G B | C. jeikeium (C) | S. epidermidis (D) |  | S. epidermidis; also recorded: M. luteus; also recorded: E. coli; also recorded: C. jeikeium | 
PF-129: peptide having multiple activities (MKLLARDPWVCAWNDIW; Peptide with targeting and/or antimicrobial activity) | G B | C. jeikeium (R) | S. epidermidis (M) |  | S. epidermidis and MRSA and E. faecalis and C. jeikeium and C. jejuni | 
PF-685 (chain 1 PTLWLACL; chain 2 PTLWLACL; Peptide with targeting and/or antimicrobial activity) |  |  |  |  |  | Organism, effect (morphology, biofilm and growth disruption) [2]: C. jeikeium (R); Organism, effect (morphology, biofilm and growth disruption) [3]: S. pneumoniae (M); Organism, effect (morphology, biofilm and growth disruption) [4]: E. faecalis (R); Target(s) (microorganisms bound by the targeting peptide) [5]: Mycobacteria spp; Organism, effect (morphology, biofilm and growth disruption) [6]: S. epidermidis (M); Organism, effect (morphology, biofilm and growth disruption) [7]: MRSA (M)
PF-153: peptide having multiple activities (GILARADCSQIA; Peptide with targeting and/or antimicrobial activity) | G B | C. jeikeium (C) | S. epidermidis (M) |  | M. luteus and P. mirabilis and E. coli and MRSA | 
PF-196: peptide having multiple activities (TTARYIRRQCHTSITPLSQG; Peptide with targeting and/or antimicrobial activity) | G B | C. jeikeium (R) | S. epidermidis (C) |  |  | 
PF-065: peptide having multiple activities (LEKNTRDNYFIHAIDRIYINTSKGLFPESELVAWG; Peptide with targeting and/or antimicrobial activity) | G B | C. jeikeium (A) | S. epidermidis (D) | MRSA (R) |  | Target(s) [5, 9]: M. luteus and E. coli and P. aeruginosa and C. albicans and MRSA and S. pneumoniae and C. jeikeium and C. jejuni
ALDCSEQSVILWYETILDKIVGVIK [PF-028] | G B | C. jeikeium (M) | S. epidermidis (M) | MRSA (R) |  | Target(s) [5, 9]: S. epidermidis and M. luteus and MRSA
PF-191: peptide having multiple activities (QFCNFAWLFLASNNAQVSALA; Peptide with targeting and/or antimicrobial activity) | G B | C. jeikeium (R) | S. epidermidis (A) | MRSA (H) | E. coli; also recorded: P. aeruginosa; also recorded: C. jejuni | 
PF-190: peptide having multiple activities (HFILRKPLLFMIHSLKTGPLDRF; Peptide with targeting and/or antimicrobial activity) | G B | C. jeikeium (R) | S. epidermidis (C) |  |  | 
PF-186: peptide having multiple activities (DADKNLSLERDRFAWRVAAP; Peptide with targeting and/or antimicrobial activity) | G B | C. jeikeium (A) | S. epidermidis (C) |  | S. epidermidis and M. luteus and E. coli and P. aeruginosa and MRSA and C. jeikeium | 
PF-046: peptide having multiple activities (chain 1 LDFYLTKHLTLML; chain 2 LDFYLTKHLTLML; Peptide with targeting and/or antimicrobial activity) | G B | C. jeikeium (R) | S. epidermidis (C) | MRSA (R) |  | Target(s) [5, 9]: E. coli; also recorded: E. faecalis; also recorded: C. jeikeium
